Measurements taken from patent US20250235543A1, “MODIFIED PROTEINS AND PROTEIN DEGRADERS” (Cullgen (Shanghai), Inc., priority 2021, published 2025).

Tests used:
[1] = tested on: Rb phosphorylation, cleaved caspase-3; experiment: Immunoblotting of downstream Rb phosphorylation and cleaved caspase-3 in Calu-1 or BT-549 cells; format: cell-based; settings: 16 hours
Description: (§1) Calu-1 (FIG. 2A) or BT-549 (FIG. 2B) cells were treated with CPD-002, CPD-004, or palbociclib at indicated concentrations for 16 hours.
(§2) Cultured cells were washed with cold PBS once and lysed in cold RIPA buffer supplemented with protease inhibitors and phosphatase inhibitors (Beyotime Biotechnology). The solutions were then incubated at 4° C. for 30 min with gentle agitation to fully lysed cells. Cell lysates were centrifuged at 13,000 rpm for 10 min at 4° C. and pellets were discarded. Total protein concentrations in the lysates were determined following BCA assays (Beyotime Biotechnology). Cell lysates were mixed with Laemmli loading buffer and heated at 99° C. for 5 min. Proteins were resolved on SDS-PAGE and visualized using Western ECL Substrate kits on a ChemiDoc MP Imaging system (Bio-Rad). Protein bands were quantitated using the Image Lab software provided by Bio-Rad.

[2] = tested on: cyclin D1; experiment: Cyclin D1 percentage degradation in Calu-1 cells (immunoblotting); format: cell-based; settings: 200 nM, 16 hours
Summary of the method: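 Cyclin D1 degradation was assessed by western blot. Clarified lysates, obtained by RIPA lysis with inhibitors and centrifugation at 13,000 rpm, were normalized by BCA protein assay and separated by SDS-PAGE. Bands were detected with Western ECL Substrate on a Bio-Rad ChemiDoc MP Imaging system and quantified in Image Lab software to derive percentage degradation.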

[3] = target: T1, DDB1 (Homo sapiens, UniProt Q16531, D705G/DEL396-460/DEL463-701/I704S/T703N); experiment: Surface plasmon resonance (SPR) binding of heterobifunctional compounds to DDB1; settings: purified DDB1ΔBPB immobilized on CM5 chip, multi-cycle kinetic format, steady state model, read-out: binding affinities (Kd) to DDB1
T1 construct: His6 (N, cleaved yes); TEV protease cleavage site (N, cleaved yes); made in house; host or cells: SF9 insect cells, Bac-to-Bac baculovirus, pFastBacHTB vector
Description: To determine whether the addition of linkers and target binders to the DDB1 ligands affected the binding to DDB1 E3 ligase, the binding affinities of heterobifunctional compounds to DDB1 was evaluated using a surface plasmon resonance (SPR) assay. Purified DDB1ΔBPB proteins were immobilized on a CM5 sensor chip and a dose range of compound solutions were injected in multi-cycle kinetic format. Data was fit to steady state model and gave equivalent dissociation constants (Kd).

[4] = tested on: cyclin D1, cyclin D2, cyclin D3; experiment: Immunoblot of cyclin D protein levels in Calu-1 (and BT-549) cells; format: cell-based; settings: 16 hours; for decrease of degradation potency versus corresponding active compound: Calu-1 cells, CPD-042 vs CPD-002, CPD-049 vs CPD-031
Description: Specific exemplary heterobifunctional compounds were characterized in Calu-1, BT-549 and other cells. Cells that express cyclin D1-3 and CDK4/6 proteins were treated with heterobifunctional compounds disclosed herein at indicated concentrations for 16 hours. Cells were collected, lysed and subject to immunoblotting using an antibody specific to cyclin D1, cyclin D2, cyclin D3, CDK4, CDK6 or phosphorylated R^b proteins. Tubulin or GAPDH was used as the loading control. DMSO treatment was used as the negative control.
In a time-course study, Calu-1 cells were treated with 500 nM CPD-002, or 100 nM CPD-031 for indicated period of time prior to immunoblotting (FIG. 4A-4B).
The heterobifunctional compound-mediated degradation was dependent on the ubiquitin-proteasome system and cullin E3 ligase. […] In addition, DDB1 E3 ligase was critical for the degrader-induced cyclin D downregulation. Depletion of DDB1 using CRISPR-Cas9 technology attenuated the cyclin D degradation induced by CPD-031 (FIG. 5C).
(§3) To verify that heterobifunctional compound-mediated degradation is dependent on the binding to CDK4-cyclin D complex, we designed three negative control compounds, CPD-042, CPD-049 and CPD-380, which are derived from CPD-002 CPD-031 and CPD-343, respectively. These three control compounds bear the same DDB1 ligand and linker as their corresponding active heterobifunctional compounds but with modified warheads to impair the binding of the control compounds to CDK4. […] However, the binding to CDK4 is not sufficient for cyclin D degradation. Two cereblon (CRBN)-recruiting reference heterobifunctional compounds, CP-10 (Su, J Med Chem, 2019; CAS No.: 2366268-80-4) and BSJ-03-123 (Brand, Cell Chem Biol, 2019; CAS No.: 2361493-16-3) were analyzed in Calu-1 cells.

[5] = tested on: cyclin D1, cyclin D2, cyclin D3, CDK4 and CDK6; experiment: Immunoblotting of cyclin D and CDK4/6 protein levels in Calu-1 cells; format: cell-based; settings: for degradation potencies compared with corresponding active heterobifunctional compounds: dose range, negative control compounds
Description: as §1
Calu-1 cells were treated with CPD-031 at indicated concentrations for 16 hours.
Calu-1 cells were treated with CPD-002 or CPD-031 at 500 nM or 100 nM, respectively for indicated period of time.
Calu-1 cells were pre-treated with DMSO, 20 μM MG-132 (MG), 5 μM MLN4924 (MLN) or 1 μM TAK-243 (TAK) for 2 hours, and subsequently incubated with 500 nM CPD-002, 500 nM CPD-004, or 100 nM CPD-031 for another 4 h or 2 h prior to immunoblotting (FIG. 5A-5B).
Calu-1 cells were treated with a dose range of negative control compounds CPD-042 or CPD-049 for 16 hours (FIG. 6A-6B).
Calu-1 cells were treated with reference compounds CP-10 or BSJ-03-123 at indicated concentrations for 8 hours.
as §2

[6] = target: T1, DDB1; experiment: SPR binding assay to immobilized DDB1ΔBPB; settings: binding affinities to DDB1
Description: The binding affinities of heterobifunctional compounds to DDB1 were determined by SPR assay (FIG. 1A-1B). Purified DDB1ΔBPB proteins were immobilized on a CM5 sensor chip, and a dose range of compound solutions were injected in multi-cycle kinetic format. Data were fit to a steady state model to provide equivalent dissociation constants (Kd).
Human DDB1ΔBPB (UniProt: Q16531. BPB domain, aa 396 to 705, is replaced with a GNGNSG linker) coding sequences were cloned into pFastBacHTB vector and were expressed in SF9 cells using Bac-to-Bac baculovirus expression system (Thermo Fisher Scientific). The expression constructs include an N-terminal His6-tag to facilitate the purification, and a TEV protease cleavage site in between. DDB1ΔBPB proteins were obtained from supernatant of cell lysates and purified through sequential application of Ni affinity column (Ni-NTA column, Bio-Rad) and size-exclusion column (Superdex 200 16/600GL column, GE Healthcare) chromatography. Protein tags were cleaved off by TEV protease, and the resulting untagged proteins were further purified by Ni affinity column. Purified proteins were verified by immunoblotting, analytic SEC, and LC-MS.
SPR studies were performed on a Biacore X100 plus instrument (GE Healthcare). Immobilization of purified DDB1ΔBPB was carried out at 25° C. using a CM5 sensor chip. The surface was pre-equilibrated in HBS-EP running buffer (10 mM HEPES, pH7.4, 150 mM NaCl, 3 mM EDTA, 0.05% P20), before it was activated with EDC/NHS. DDB1ΔBPB proteins were immobilized by amine coupling to a density of 10,000-12,000 resonance units (RUs) on flow cell FC2, whereas flow cell FC1 was used as reference. Both protein immobilized and reference surfaces were deactivated with 1M ethanolamine. All interaction experiments were performed at 25° C. Test compounds were prepared and serially diluted in HBS-EP running buffer containing final 5% DMSO (6-point two-fold serial dilution, 100 μM-3.125 μM final concentration of compounds). Compound solutions were injected individually in multi-cycle kinetic format without regeneration (flow rate 30 μl/min, association time 120 s, dissociation time 120 s). Sensorgrams from reference surfaces and blank injections were subtracted from the raw data (double-referencing) and the data was solvent-corrected prior to analysis. All data were fit to steady state affinity model using Biacore Evaluation Software to provide equivalent dissociation constants (Kd).

[7] = tested on: cyclin D1, cyclin D2, cyclin D3, CDK4 and CDK6; experiment: Immunoblotting of cyclin D and CDK4/6 protein levels in BT-549 cells; format: cell-based; settings: indicated concentrations, 16 hours
Description: as §1, §2

[8] = target: T2, CDK4 (Homo sapiens, UniProt P11802); experiment: CDK4 percentage degradation in Calu-1 cells (immunoblotting); format: cell-based; settings: Calu-1 cells, 200 nM, 16 hours; read-out: CDK4 Degradation (200 nM)
T2 construct: endogenous in cells; host or cells: Calu-1
Summary of the method: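 CDK4 degradation was measured by immunoblotting. Cells were washed in cold PBS and lysed in RIPA buffer with inhibitors for 30 min at 4° C., then spun at 13,000 rpm to clear. After BCA protein determination, lysates were heated at 99° C. for 5 min in Laemmli buffer, resolved on SDS-PAGE, imaged on a ChemiDoc MP with ECL substrate, and band intensities quantified.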

[9] = tested on: Calu-1 cells; experiment: Anti-viability / anti-proliferation in Calu-1 cells; format: cell-based; settings: CPD-042 vs CPD-002, CPD-049 vs CPD-031
Description: FIG. 6 show immunoblots of cyclin D1, cyclin D2, cyclin D3, and CDK4 proteins expressed by Calu-1 cells after treatment with a dose range of control compounds CPD-042 (A), or CPD-049 (B) for 16 hours, and anti-viability curves of Calu-1 cells in the presence of CPD-002 and CPD-042 (C), or CPD-031 and CPD-049 (D).
FIG. 11A-11B show immunoblots of cyclin D1, CDK4, and CDK6 proteins expressed by Calu-1 cells after treatment with a dose range of heterobifunctional reference compound CP-10, or BSJ-03-123 for 8 hours (FIG. 11A), and anti-viability curves of Calu-1 cells in the presence of CP-10, or BSJ-03-123 for 3 days (FIG. 11B).
as §3

[10] = tested on: Calu-1; experiment: Cell viability assay, Calu-1; format: cell-based; settings: Calu-1 cells, 96-well plates, serial dilution, 3 days
Description: Cells were treated with CDK4/6 inhibitors palbociclib, ribociclib, or abemaciclib, or heterobifunctional compounds CPD-002 or CPD-031 following a 9-point serial dilution for 3 days.
Cells were seeded at a density of 2,000-5,000 cells per well in 96-well assay plates and treated with test compounds following a 10-point serial dilution for 3-6 days. Cell viability was determined using the CellTiter-Lumi assay kit according to the manufacturer's instructions. The dose-response curves were determined and IC50 values were calculated using the GraphPad Prism software following a nonlinear regression (least squares fit) method. Data presented was mean±standard deviation (SD) unless otherwise indicated.

T2 sequence (P11802 2-303 limits assumed): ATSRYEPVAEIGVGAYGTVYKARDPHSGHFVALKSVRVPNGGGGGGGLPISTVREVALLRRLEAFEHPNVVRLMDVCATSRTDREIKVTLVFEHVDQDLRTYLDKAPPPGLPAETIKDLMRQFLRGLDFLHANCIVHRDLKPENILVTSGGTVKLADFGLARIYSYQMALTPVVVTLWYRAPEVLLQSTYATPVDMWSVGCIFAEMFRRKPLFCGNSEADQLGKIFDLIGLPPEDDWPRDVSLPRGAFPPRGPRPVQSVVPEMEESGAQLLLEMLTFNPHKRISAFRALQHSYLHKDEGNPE
T2 sequence (P24385 whole entry partner): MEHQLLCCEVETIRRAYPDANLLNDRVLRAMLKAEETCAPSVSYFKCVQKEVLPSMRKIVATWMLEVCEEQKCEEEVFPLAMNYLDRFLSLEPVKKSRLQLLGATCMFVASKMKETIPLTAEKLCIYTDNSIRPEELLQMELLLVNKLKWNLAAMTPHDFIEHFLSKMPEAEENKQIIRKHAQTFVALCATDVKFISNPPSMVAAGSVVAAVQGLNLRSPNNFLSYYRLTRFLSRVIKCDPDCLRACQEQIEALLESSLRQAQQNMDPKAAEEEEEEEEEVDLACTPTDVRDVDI
T2 sequence (Q16531 2-1140 limits assumed, further chain): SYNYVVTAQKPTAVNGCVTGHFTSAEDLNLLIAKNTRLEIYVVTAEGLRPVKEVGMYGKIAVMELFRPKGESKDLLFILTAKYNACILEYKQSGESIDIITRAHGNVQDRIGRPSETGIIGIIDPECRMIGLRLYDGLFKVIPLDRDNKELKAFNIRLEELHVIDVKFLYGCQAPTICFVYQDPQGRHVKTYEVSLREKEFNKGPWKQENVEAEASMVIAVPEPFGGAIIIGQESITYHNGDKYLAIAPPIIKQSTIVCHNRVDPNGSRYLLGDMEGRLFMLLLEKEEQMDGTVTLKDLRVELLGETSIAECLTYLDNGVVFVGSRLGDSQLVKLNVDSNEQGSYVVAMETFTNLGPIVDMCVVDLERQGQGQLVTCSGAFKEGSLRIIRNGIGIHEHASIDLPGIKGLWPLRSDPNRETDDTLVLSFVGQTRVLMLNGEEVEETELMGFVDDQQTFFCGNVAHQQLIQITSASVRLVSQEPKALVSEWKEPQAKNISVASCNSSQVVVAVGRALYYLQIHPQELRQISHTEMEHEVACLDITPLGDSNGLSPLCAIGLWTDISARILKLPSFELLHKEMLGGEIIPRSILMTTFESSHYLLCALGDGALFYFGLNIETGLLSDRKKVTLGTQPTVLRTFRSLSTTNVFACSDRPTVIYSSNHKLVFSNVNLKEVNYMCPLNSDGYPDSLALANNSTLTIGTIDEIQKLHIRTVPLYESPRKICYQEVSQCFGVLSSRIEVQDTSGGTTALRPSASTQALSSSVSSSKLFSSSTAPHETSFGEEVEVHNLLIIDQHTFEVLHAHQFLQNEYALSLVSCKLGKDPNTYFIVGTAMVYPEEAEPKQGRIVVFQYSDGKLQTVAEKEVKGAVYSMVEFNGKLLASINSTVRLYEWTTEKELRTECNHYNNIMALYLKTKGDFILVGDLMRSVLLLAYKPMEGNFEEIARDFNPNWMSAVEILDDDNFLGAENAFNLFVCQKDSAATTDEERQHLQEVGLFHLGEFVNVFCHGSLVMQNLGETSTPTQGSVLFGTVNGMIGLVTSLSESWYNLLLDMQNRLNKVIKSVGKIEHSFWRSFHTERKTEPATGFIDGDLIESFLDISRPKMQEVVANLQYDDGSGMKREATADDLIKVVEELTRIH
T1 sequence (Q16531 other isoform, or with tags, fused parts or gaps DEL396-460/DEL463-701/T703N/I704S/D705G): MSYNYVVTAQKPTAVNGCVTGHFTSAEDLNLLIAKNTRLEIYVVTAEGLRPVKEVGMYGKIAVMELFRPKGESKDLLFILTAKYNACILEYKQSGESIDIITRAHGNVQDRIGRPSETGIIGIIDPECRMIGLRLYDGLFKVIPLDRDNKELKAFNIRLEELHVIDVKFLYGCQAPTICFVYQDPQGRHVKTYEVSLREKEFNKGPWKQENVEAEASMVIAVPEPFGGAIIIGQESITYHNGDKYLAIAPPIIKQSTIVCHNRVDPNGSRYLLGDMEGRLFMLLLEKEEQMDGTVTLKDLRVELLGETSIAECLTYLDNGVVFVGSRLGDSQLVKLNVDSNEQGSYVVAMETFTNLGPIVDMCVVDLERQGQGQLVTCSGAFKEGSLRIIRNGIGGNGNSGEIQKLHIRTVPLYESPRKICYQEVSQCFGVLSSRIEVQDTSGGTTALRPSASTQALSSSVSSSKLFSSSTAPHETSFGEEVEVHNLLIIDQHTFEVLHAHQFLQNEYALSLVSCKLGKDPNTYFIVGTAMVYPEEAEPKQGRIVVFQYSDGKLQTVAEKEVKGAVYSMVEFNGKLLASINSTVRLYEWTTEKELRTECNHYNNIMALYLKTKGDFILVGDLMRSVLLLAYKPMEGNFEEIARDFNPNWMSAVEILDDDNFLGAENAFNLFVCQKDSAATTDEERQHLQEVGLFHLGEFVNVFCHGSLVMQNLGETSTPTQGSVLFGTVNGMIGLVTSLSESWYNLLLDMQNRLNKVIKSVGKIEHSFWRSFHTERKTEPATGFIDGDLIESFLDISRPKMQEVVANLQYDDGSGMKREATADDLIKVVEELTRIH

Row | Kd [3] [µM] | Kd [6] [µM] | inhibition at 0.2 µM [8] [%] | Structure (SMILES) | downstream Rb phosphorylation and cleaved caspase-3 [1] | CyclinD1 Degradation (200 nM) [2] | reduction of cyclin D1, cyclin D2, and cyclin D3 protein levels ([4]; immunoblot, Calu-1 / BT-549 cells, dose range) | cyclin D degradation after pretreatment with MG-132, MLN4924 or TAK-243 ([5]; 2 hours pre-treatment, then 500 nM CPD-002, 500 nM CPD-004 or 100 nM CPD-031 for 4 h or 2 h) | cyclin D1, cyclin D2, cyclin D3, CDK4 and CDK6 protein levels ([5]; indicated concentrations, 16 hours) | cyclin D1, cyclin D2, cyclin D3, CDK4 and CDK6 protein levels [7] | decrease of degradation potency versus corresponding active compound [4] [fold] | decrease of cellular anti-proliferation activity versus corresponding active compound [9] [fold] | degradation potencies compared with corresponding active heterobifunctional compounds ([5]; 16 hours) | cell viability (cellular anti-proliferation activity) [10]
1 | 9.4 | < 20 | 30 to 50 | CC(=O)c1c(C)c2cnc(Nc3ccc(N4CCN(CC(=O)NCCOCCOCCOCCOCCOCCNc5ccc(C(=O)Nc6nccs6)c(C)c5)CC4)cn3)nc2n(C2CCCC2)c1=O [CPD-004, 4-((1-(4-(6-((6-Acetyl-8-cyclopentyl-5-methyl-7-oxo-7,8-dihydropyrido[2,3-d]pyrimidin-2-yl)amino)pyridin-3-yl)piperazin-1-yl)-2-oxo-6,9,12,15,18-pentaoxa-3-azaicosan-20-yl)amino)-2-methyl-N-(thiazol-2-yl)benzamide] | inhibited downstream Rb phosphorylation and induced cleaved caspase-3 in a concentration-dependent manner | A (protein percentage degradation >=80%) | particularly effective | diminished the cyclin D degradation effect | reduced cyclin D1, cyclin D2, cyclin D3, CDK4 and CDK6 protein levels in a concentration-dependent manner | reduced cyclin D1, cyclin D2, cyclin D3, CDK4 and CDK6 protein levels in a concentration-dependent manner |  |  |  | 
2 |  | < 20 | < 30 | CC(=O)c1c(C)c2cnc(N(C)c3ccc(N4CCN(CC(=O)NCCOCCOCCOCCOCCOCCNc5ccc(C(=O)Nc6ncc(C)s6)c(C)c5)CC4)cn3)nc2n(C2CCCC2)c1=O [CPD-042, 4-((1-(4-(6-((6-Acetyl-8-cyclopentyl-5-methyl-7-oxo-7,8-dihydropyrido[2,3-d]pyrimidin-2-yl)(methyl)amino)pyridin-3-yl)piperazin-1-yl)-2-oxo-6,9,12,15,18-pentaoxa-3-azaicosan-20-yl)amino)-2-methyl-N-(5-methylthiazol-2-yl)benzamide] |  | D (protein percentage degradation <30%) |  |  |  |  | > 10 | > 20 | much weaker degradation potencies | much weaker cellular anti-proliferation activities
3 |  | 20 to 50 | < 30 | CC(=O)c1c(C)c2cnc(N(C)c3ccc(N4CCN(CC(=O)NCCOCCOCCOCCOCCOCCNc5ccc(C(=O)Nc6nc(C)c(C)s6)c(C)c5)CC4)cn3)nc2n(C2CCCC2)c1=O [CPD-049, 4-((1-(4-(6-((6-Acetyl-8-cyclopentyl-5-methyl-7-oxo-7,8-dihydropyrido[2,3-d]pyrimidin-2-yl)(methyl)amino)pyridin-3-yl)piperazin-1-yl)-2-oxo-6,9,12,15,18-pentaoxa-3-azaicosan-20-yl)amino)-N-(4,5-dimethylthiazol-2-yl)-2-methylbenzamide] |  | D (protein percentage degradation <30%) |  |  |  |  | > 100 | > 100 | much weaker degradation potencies | much weaker cellular anti-proliferation activities
